Tests used:
Experiment in all cases: Microbiological challenge testing in BPW broth, graded subculture counts
Type in all cases: cell-based
[1] = tested on: Aspergillus niger Wild type; details: A. niger
Description: (§1) The microorganisms in the table below were used in challenge tests. They were either ATCC (American Type Culture Collection) or “wild type” as indicated. Wild type organisms were problematic organisms previously isolated from chemical products.
(§2) All of the microorganisms were grown in Tryptose Soy Broth (TSB), DIFCO™ available from Becton, Dickinson and Company, containing 1% dextrose. Candida albicans and Aspergillus niger, were incubated at 22° C.+/−2° C. for at least 96 hours. All bacteria were incubated at 35° C.+/−2° C. in a humidified incubator for at least 96 hours.
(§3) Candida albicans and Aspergillus niger were also grown on Sabouraud Dextrose Agar (SABD) at 22° C. for 7 to 14 days or until full sporulation was achieved.
(§4) The following procedure was followed to determine the amount of each challenge material (inoculum broth) needed to produce a 10^8 CFU/mL challenge, which is equivalent to a final test-sample microbial concentration of 10^5 to 10^6 CFU/mL (CFU=colony forming units).
(§5) Using a sterile pipette, 1 mL of the growth from each TSB culture was transferred into tubes of 9 mL buffered water (pH 7.2 phosphate buffer) and mixed thoroughly. This was repeated to make serial 1:10 dilutions. Then, 0.1 mL of each sample and dilution was inoculated onto agar plates to produce the equivalent of a further 1:10 dilution. (C. albicans and A. niger were inoculated onto SABD and bacteria were inoculated onto Plate Count Agar (PCA), DIFCO™ available from Becton, Dickinson and Company.) (The normal volume plated for most samples was 0.1 mL. Some samples that could be very low in micro-organisms (high dilutions) were plated using 0.5 mL of inoculum, in order to produce reproducible counts.) The samples were distributed on the plates using the spread-plate technique. The spread-plate technique is carried out by spreading the sample over the entire plate surface using a sterile spreading rod while rotating the plate with a rotary auto-plater. After the inoculum was absorbed completely by the agar, each plate was inverted and incubated (fungi at 22° C.+/−2° C. and bacteria at 35° C.+/−2° C.).
(§6) After incubation for at least 48 hours, colonies that had developed on the agar plates were counted (CFU) and recorded with the corresponding dilution. If counting had to be delayed temporarily, plates were refrigerated, preferably no more than 24 hours, until they could be counted. The number of CFU/mL was determined by multiplying the plate count by the dilution factor of the plate counted.
(§7) Turbidity in Nepholemetric Turbidity Units (NTU) was measured for each serial dilution using the HF-Micro 100 Model Turbidimeter. For each microorganism, the plate counts were compared to the turbidity readings.
Aspergillus niger cultures were harvested and spores dislodged from the SABD on which they were grown by rubbing the growth gently with a sterile inoculating loop. The spores were then mixed into the broth culture that had been incubated with a sterile magnetic stir bar to reduce pellicle formation. The spore-culture mixture was filtered repeatedly through sterile, nonabsorbent cotton and harvested repeatedly, adjusting vegetative cells and spores to a level of 1.0×10^8. A hemocytometer was used to verify the final challenge concentration.
(§8) Control substrates (“broth alone”) were prepared for each microorganism separately in triplicate by adding 13.5 mL of Buffered Peptone Water broth (BPW) containing 1% dextrose to each 20-mL glass tube, then adding 1.5 mL challenge material to produce a final concentration at time zero of 10^5 to 10^6 CFU/mL and a total volume of 15 mL.

[2] = tested on: Candida albicans Wild type; details: C. albicans
Description: as §1, §2, §3, §4, §5, §6, §7
On the day of challenge, the Candida albicans inoculum broth was poured through nonabsorbent sterile gauze and centrifuged. The […] was then diluted with buffered water (pH 7.2 phosphate buffer) until the desired turbidity was reached. Using a hemocytometer, a determination was made whether the challenge contained the desired concentration. Dilutions were made through 1.0×10^8 and three SABD spread plates were inoculated with 0.1 mL of each dilution. The plates were incubated for at least 48 hours and challenge counts were confirmed.
as §8

[3] = tested on: Pseudomonas aeruginosa Wild type; details: P. aeruginosa
Procedure, shortened: (§9)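 Challenge substrates of BPW plus 1% dextrose containing the test material (w/v) or broth alone were inoculated to 10^5–10^6 CFU/mL. Bacteria had been precultured in dextrose TSB at 35 °C for at least 96 h. CFU/mL came from plate count × dilution factor on PCA after ≥48 h at 35 °C.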

[4] = tested on: Staphylococcus epidermidis ATCC 12228
Procedure, shortened: as §9

OCC1CCC(CO)CC1 (stereo not drawn) [1,4-CHDM, 1,4-cyclohexanedimethanol]
Grade ([1]; 0.5% (wt/vol), 3 day): 4 | Grade ([1]; 0.5% (wt/vol), 13 day): 4 | Grade ([1]; 0.5% (wt/vol), 30 day): 4 | Grade ([1]; 1.25% (wt/vol), 3 day): 4 | Grade ([1]; 1.25% (wt/vol), 13 day): 4 | Grade ([1]; 1.25% (wt/vol), 30 day): 4 | Grade ([1]; 2.5% (wt/vol), 3 day): 2 (Countable (10 to 100 colonies)) | Grade ([1]; 2.5% (wt/vol), 13 day): 1 (Countable (1 to 10 colonies)) | Grade ([1]; 2.5% (wt/vol), 30 day): 2.3 | Grade ([1]; 5.0% (wt/vol), 3 day): 0 | Grade ([1]; 5.0% (wt/vol), 13 day): 0 | Grade ([1]; 5.0% (wt/vol), 30 day): 0 | Grade ([2]; 0.5% (wt/vol), 3 day): 3 (100 to 1000 colonies (thus 1000 to 10,000 CFU/mL)) | Grade ([2]; 0.5% (wt/vol), 14 day): 4 (1000 to 10,000 colonies countable (thus 10,000 CFU/mL to 100,000 CFU/mL)) | Grade ([2]; 0.5% (wt/vol), 30 day): 4 (1000 to 10,000 colonies countable (thus 10,000 CFU/mL to 100,000 CFU/mL)) | Grade ([2]; 1.25% (wt/vol), 3 day): 1 (0 to 51 colonies counted (thus 10 to 510 CFU/mL based on 0.1-mL sample)) | Grade ([2]; 1.25% (wt/vol), 14 day): 3 (100 to 1000 colonies (thus 1000 to 10,000 CFU/mL)) | Grade ([2]; 1.25% (wt/vol), 30 day): 4 (1000 to 10,000 colonies countable (thus 10,000 CFU/mL to 100,000 CFU/mL)) | Grade ([2]; 2.5% (wt/vol), 3 day): 0 | Grade ([2]; 2.5% (wt/vol), 14 day): 2 (52 to 100 colonies counted (thus 520 to 1000 CFU/mL)) | Grade ([2]; 2.5% (wt/vol), 30 day): 1 (0 to 51 colonies counted (thus 10 to 510 CFU/mL based on 0.1-mL sample)) | Grade ([2]; 5.0% (wt/vol), 3 day): 0 | Grade ([2]; 5.0% (wt/vol), 14 day): 0 | Grade ([2]; 5.0% (wt/vol), 30 day): 0 | Grade ([3]; 0.5% (wt/vol), 3 day): 4 (1000 to 10,000 colonies countable (thus 10,000 CFU/mL to 100,000 CFU/mL)) | Grade ([3]; 0.5% (wt/vol), 13 day): 4 (1000 to 10,000 colonies countable (thus 10,000 CFU/mL to 100,000 CFU/mL)) | Grade ([3]; 0.5% (wt/vol), 30 day): 4 (1000 to 10,000 colonies countable (thus 10,000 CFU/mL to 100,000 CFU/mL)) | Grade ([3]; 1.25% (wt/vol), 3 day): 4 (1000 to 10,000 colonies countable (thus 10,000 CFU/mL to 100,000 CFU/mL)) | Grade ([3]; 1.25% (wt/vol), 13 day): 3 (100 to 1000 colonies (thus 1000 to 10,000 CFU/mL)) | Grade ([3]; 1.25% (wt/vol), 30 day): 4 (1000 to 10,000 colonies countable (thus 10,000 CFU/mL to 100,000 CFU/mL)) | Grade ([3]; 2.5% (wt/vol), 3 day): 3 (100 to 1000 colonies (thus 1000 to 10,000 CFU/mL)) | Grade ([3]; 2.5% (wt/vol), 13 day): 2 (52 to 100 colonies counted (thus 520 to 1000 CFU/mL)) | Grade ([3]; 2.5% (wt/vol), 30 day): 0 | Grade ([3]; 5.0% (wt/vol), 3 day): 0 | Grade ([3]; 5.0% (wt/vol), 13 day): 0 | Grade ([3]; 5.0% (wt/vol), 30 day): 0 | S. epidermidis growth grade, 3 day ([4]; 0.5% weight/volume): 4 (1000 to 10,000 colonies countable (thus 10,000 CFU/mL to 100,000 CFU/mL)) | S. epidermidis growth grade, 13 day ([4]; 0.5% weight/volume): 4 (1000 to 10,000 colonies countable (thus 10,000 CFU/mL to 100,000 CFU/mL)) | S. epidermidis growth grade, 30 day ([4]; 0.5% weight/volume): 4 (1000 to 10,000 colonies countable (thus 10,000 CFU/mL to 100,000 CFU/mL)) | S. epidermidis growth grade, 3 day ([4]; 1.25% weight/volume): 2 (52 to 100 colonies counted (thus 520 to 1000 CFU/mL)) | S. epidermidis growth grade, 13 day ([4]; 1.25% weight/volume): 0.7 | S. epidermidis growth grade, 30 day ([4]; 1.25% weight/volume): 2 (52 to 100 colonies counted (thus 520 to 1000 CFU/mL)) | S. epidermidis growth grade, 3 day ([4]; 2.5% weight/volume): 0.7 | S. epidermidis growth grade, 13 day ([4]; 2.5% weight/volume): 0 | S. epidermidis growth grade, 30 day ([4]; 2.5% weight/volume): 0 | S. epidermidis growth grade, 3 day ([4]; 5.0% weight/volume): 0 | S. epidermidis growth grade, 13 day ([4]; 5.0% weight/volume): 0 | S. epidermidis growth grade, 30 day ([4]; 5.0% weight/volume): 0

CCCCOCCO [EB, 2-butoxyethanol]
Grade ([1]; 2.5% (wt/vol), 3 day): 4 | Grade ([1]; 2.5% (wt/vol), 13 day): 4 | Grade ([1]; 2.5% (wt/vol), 30 day): 4 | Grade ([1]; 5.0% (wt/vol), 3 day): 2.5 | Grade ([1]; 5.0% (wt/vol), 13 day): 0 | Grade ([1]; 5.0% (wt/vol), 30 day): 0 | Grade ([2]; 2.5% (wt/vol), 3 day): 4 (1000 to 10,000 colonies countable (thus 10,000 CFU/mL to 100,000 CFU/mL)) | Grade ([2]; 2.5% (wt/vol), 14 day): 4 (1000 to 10,000 colonies countable (thus 10,000 CFU/mL to 100,000 CFU/mL)) | Grade ([2]; 2.5% (wt/vol), 30 day): 4 (1000 to 10,000 colonies countable (thus 10,000 CFU/mL to 100,000 CFU/mL)) | Grade ([2]; 5.0% (wt/vol), 3 day): 2 (52 to 100 colonies counted (thus 520 to 1000 CFU/mL)) | Grade ([2]; 5.0% (wt/vol), 14 day): 0 | Grade ([2]; 5.0% (wt/vol), 30 day): 0 | Grade ([3]; 2.5% (wt/vol), 3 day): 4 (1000 to 10,000 colonies countable (thus 10,000 CFU/mL to 100,000 CFU/mL)) | Grade ([3]; 2.5% (wt/vol), 13 day): 4 (1000 to 10,000 colonies countable (thus 10,000 CFU/mL to 100,000 CFU/mL)) | Grade ([3]; 2.5% (wt/vol), 30 day): 4 (1000 to 10,000 colonies countable (thus 10,000 CFU/mL to 100,000 CFU/mL)) | Grade ([3]; 5.0% (wt/vol), 3 day): 0 | Grade ([3]; 5.0% (wt/vol), 13 day): 0 | Grade ([3]; 5.0% (wt/vol), 30 day): 0 | S. epidermidis growth grade, 3 day ([4]; 2.5% weight/volume): 4 (1000 to 10,000 colonies countable (thus 10,000 CFU/mL to 100,000 CFU/mL)) | S. epidermidis growth grade, 13 day ([4]; 2.5% weight/volume): 4 (1000 to 10,000 colonies countable (thus 10,000 CFU/mL to 100,000 CFU/mL)) | S. epidermidis growth grade, 30 day ([4]; 2.5% weight/volume): 4 (1000 to 10,000 colonies countable (thus 10,000 CFU/mL to 100,000 CFU/mL)) | S. epidermidis growth grade, 3 day ([4]; 5.0% weight/volume): 0 | S. epidermidis growth grade, 13 day ([4]; 5.0% weight/volume): 0 | S. epidermidis growth grade, 30 day ([4]; 5.0% weight/volume): 0
